Results on three compounds are retold here after the NIST ThermoML archive (doi:10.1016/j.fluid.2014.01.033).

± gives the expanded uncertainty stated by the source.

The conditions of data set [1]: 298.15 K; 101.33 kPa; Liquid; Vibrating tube method.
A short description of data set [2]: refractive index (Na D-line) (dimensionless). The settings on record: 298.15 K; 101.33 kPa; Liquid; Standard Abbe refractometry.

On to `c1ccccc1` [benzene], for which the mass density (usually the mass of a sample divided by its volume) in data set [1] is 873.79 ± 0.17 kg/m3. Besides, the refractive index (commonly a measure of how strongly the sample bends light) in data set [2] turned out to be 1.4978 ± 0.0007.
The corresponding values for `CC#N` [acetonitrile] are 776.55 ± 0.19 kg/m3 and 1.3413 ± 0.0007.
With `CCCCCC` [hexane], the mass density in data set [1] is reported as 655.12 ± 0.21 kg/m3. For the same compound, in data set [2], the refractive index was 1.3725 ± 0.0007.
